According to PubChem BioAssay (NCI):
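Compound exposure: 48 hours, 5 concentrations, 96-well plates. At the TGI there is no net growth.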

Experiments:
Experiment in all cases: DTP human tumour cell line panel, 48 h
[1] = system: 786-0 renal
[2] = system: A498 renal
[3] = system: A549 NSCLC
[4] = system: ACHN renal
[5] = system: CAKI-1 renal
[6] = system: CCRF-CEM leukemia
[7] = system: COLO 205 colon
[8] = system: DU-145 prostate
[9] = system: EKVX NSCLC
[10] = system: HCC-2998 colon
[11] = system: HCT-116 colon
[12] = system: HCT-15 colon
[13] = system: HL-60(TB) leukemia
[14] = system: HOP-62 NSCLC
[15] = system: HOP-92 NSCLC
[16] = system: HS 578T breast
[17] = system: HT29 colon
[18] = system: IGROV1 ovarian
[19] = system: K-562 leukemia
[20] = system: KM12 colon
[21] = system: LOX IMVI melanoma
[22] = system: M14 melanoma
[23] = system: MALME-3M melanoma
[24] = system: MCF7 breast
[25] = system: MDA-MB-231 breast
[26] = system: MDA-MB-435
[27] = system: MDA-N
[28] = system: MOLT-4 leukemia
[29] = system: NCI-H226 lung
[30] = system: NCI-H23 lung
[31] = system: NCI-H460 lung
[32] = system: NCI-H522 lung
[33] = system: NCI/ADR-RES ovarian
[34] = system: OVCAR-3 ovarian
[35] = system: OVCAR-4 ovarian
[36] = system: OVCAR-5 ovarian
[37] = system: OVCAR-8 ovarian
[38] = system: PC-3 prostate
[39] = system: RPMI-8226 leukemia
[40] = system: RXF 393 renal
[41] = system: SF-268 CNS
[42] = system: SF-295 CNS
[43] = system: SF-539 CNS
[44] = system: SK-MEL-2 melanoma
[45] = system: SK-MEL-28 melanoma
[46] = system: SK-MEL-5 melanoma
[47] = system: SK-OV-3 ovarian
[48] = system: SN12C renal
[49] = system: SNB-19 CNS
[50] = system: SR leukemia
[51] = system: SW-620 colon
[52] = system: T-47D breast
[53] = system: TK-10 renal
[54] = system: U251 CNS
[55] = system: UACC-62 melanoma
[56] = system: UO-31 renal
[57] = system: BT-549 breast
[58] = system: SNB-75 CNS
[59] = system: UACC-257 melanoma

Measured: TGI

COc1ccc(/C=N/N=C(\N)NO)c(OC)c1OC
74.5 µM: [50]
41.9 µM: [37]
35.4 µM: [33]
71.2 µM: [15]
61.7 µM: [43]
45.8 µM: [13]
91.9 µM: [56]
77.6 µM: [2]
75.5 µM: [11]
90.2 µM: [52]
74.3 µM: [29]
67.2 µM: [4]
67.3 µM: [34]
72 µM: [46]
76.1 µM: [6]
52.9 µM: [20]
not listed: [57] | [58] | [59]
> 100 µM: all other assays above

Cn1cnc(/C=C/C#N)c1
not listed: [1] | [8] | [11] | [13] | [16] | [21] | [39] | [52]
> 100 µM: all other assays above
